Several values for one entry are separate records, joined by “and”; a condition that tells them apart may be missing. Identical values can stand only once.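 Cells were grown in 96-well plates and exposed to each compound for 48 hours at five concentrations; endpoints were interpolated linearly between bracketing concentrations, or set to the highest concentration if not reached. Here, GI50 denotes the concentration required for 50% inhibition of growth. The concentration for full growth arrest is given as TGI.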
Assays:
Experiment in all cases: DTP human tumour cell line panel, 48 h
[1] = tested on: ACHN renal
[2] = tested on: EKVX NSCLC
[3] = tested on: NCI/ADR-RES ovarian
[4] = tested on: OVCAR-3 ovarian
[5] = tested on: RXF 393 renal
[6] = tested on: SF-268 CNS
[7] = tested on: SF-295 CNS
[8] = tested on: SF-539 CNS
[9] = tested on: SN12C renal
[10] = tested on: TK-10 renal

SMILES	GI50 [1] [µM]	TGI [1]	GI50 [2]	TGI [2]	GI50 [3] [µM]	TGI [3] [µM]	GI50 [4]	TGI [4]	GI50 [5]	TGI [5]	GI50 [6]	TGI [6]	GI50 [7]	TGI [7]	GI50 [8] [nM]	TGI [8] [µM]	GI50 [9]	TGI [9]	GI50 [10] [µM]	TGI [10] [µM]
C[C@H]1C[C@@H](n2c(Nc3ccc(OC(F)(F)F)cc3)nc3cc(CCC(=O)O)ccc32)CC(C)(C)C1	13.1	27.1 µM	10.5 µM	32.2 µM	11.7	27.5	13 µM	25.8 µM	11.3 µM	25.2 µM	12.1 µM	27.7 µM	4.85 µM	19.1 µM	13100	37.7	9.95 µM	28 µM	20.6	46.9
CCCC(=O)OCC1OC(n2cc(F)c(=O)[nH]c2=O)CC1OC(=O)CCC (configuration not stated)		> 10 µM		> 10 µM		> 10		> 10 µM		> 10 µM		> 10 µM		> 10 µM		0.281		> 10 µM		> 10
O=C(CCN1CCCC1)Nc1ccc2c(Nc3ccc(F)cc3)c3ccccc3nc2c1	0.526	1.98 µM	1.89 µM	4.69 µM	2.11	7.4	1.68 µM	4.21 µM	1.23 µM	2.64 µM	1.19 µM	2.82 µM	1.05 µM	2.32 µM	1610	3.05	0.523 µM	2.43 µM	1.66	3.97
COc1ccc2[nH]c3c(C)c4c(c(C)c3c2c1)CN(C)C=C4		64 µM		38.8 µM		> 100		34.9 µM		30.4 µM		0.815 µM		2.7 µM		2		0.985 µM		65.8
COc1ccc(-c2cn(C)c3c2-n2cccc2C3=O)cc1O	5.05	22.5 µM	14.6 µM	51.5 µM	3.39	25.3	3.39 µM	21.4 µM	42.3 µM	99.4 µM	11.4 µM	50.5 µM	5.22 µM	21.3 µM	1760	16.5	10.8 µM	41.2 µM	3.05	8.29
COc1ccc(CCN2CCCn3c2nc2ccccc2c3=O)cc1	0.978	> 100 µM	0.97 µM	> 100 µM	0.0432		0.0328 µM	0.136 µM	0.2 µM	35.8 µM	1.16 µM	> 100 µM	0.0597 µM	> 54.2 µM	87.6	0.432	1.1 µM	> 100 µM		> 100
CC(C)(C)OC(=O)NCCCCCCCCCn1c2c(c3ccccc3c1=O)C(=O)c1ccccc1-2	27	> 100 µM	49.2 µM	> 100 µM	43.5	> 100	29.2 µM	> 100 µM	20.5 µM	> 100 µM	32.6 µM	> 100 µM	24.8 µM	> 100 µM	18000	52.8	76.8 µM	> 100 µM	17.4	45.8
Cc1[nH]n(-c2nc(-c3ccccc3)cc(=O)[nH]2)c(=O)c1CCO		> 100 µM		> 100 µM		> 100		> 100 µM		> 100 µM		> 100 µM		> 100 µM		> 100		> 100 µM		> 100
CN(c1cccc(C(=O)O)c1)c1cc(O/N=[N+](\[O-])N(C)C)c([N+](=O)[O-])cc1[N+](=O)[O-]	> 100	> 100 µM	> 100 µM	> 100 µM	> 100	> 100	> 100 µM	> 100 µM	> 100 µM	> 100 µM	55.5 µM	> 100 µM	> 100 µM	> 100 µM	> 100000	> 100	> 100 µM	> 100 µM	> 100	> 100
O=C(c1ccc(Cl)cc1Cl)N1CCN(C(=O)c2ccc(Cl)cc2Cl)C1=S	21.3	45.7 µM	20.5 µM	48.4 µM	24.8	74.3	19.7 µM	42.4 µM	18.5 µM	43 µM	24.5 µM	56.1 µM	22.9 µM	61.7 µM	27200	49.6	18.1 µM	34.4 µM	36.3	> 100
COc1ccc(-n2nc(C)c3c(Nc4ccc(NC(=O)Nc5cccc(C(F)(F)F)c5)cc4)ncnc32)cc1	1.6	3.43 µM	1.93 µM	4.34 µM	1.81	4.72	1.74 µM	3.92 µM	0.846 µM	2.34 µM	2.14 µM	5.51 µM	1.67 µM	3.3 µM	1280	2.66	1.79 µM	3.86 µM	2.39	6.6
COc1ccc(C2=C(c3ccc(OC)cc3)C(=O)OC2)cc1	2.72	23.4 µM	16.1 µM	> 100 µM	2.89	28.4	0.216 µM	0.712 µM	1.05 µM		1.52 µM	27.6 µM	0.549 µM		745	6.67	7.68 µM	42.2 µM	1.1	8.01
COC(=O)CNC(=O)C(=O)c1c(O)c(O)c(C(C)C)c2cc(C)c(-c3c(C)cc4c(C(C)C)c(O)c(O)c(C(=O)C(=O)NCC(=O)OC)c4c3O)c(O)c12	1.42	5.54 µM	1.2 µM	4.99 µM	1.93	9.28	1.61 µM	6.34 µM	1.85 µM	8.39 µM	1.88 µM	8.75 µM	1.46 µM	6.89 µM	1770	7.84	1.97 µM	8.13 µM		
CCC/C=C/C=C/C(=O)OC1/C(=C/C(=O)OC)CC2CC(C(C)O)OC(=O)CC(O)CC3CC(OC(C)=O)C(C)(C)C(O)(CC4C/C(=C/C(=O)OC)CC(/C=C/C(C)(C)C1(O)O2)O4)O3 (configuration not stated)	> 12.5	11 µM and > 12.5 µM	> 10.9 µM and 5.21 µM and > 12.5 µM	> 10.9 µM and 9.53 µM and > 12.5 µM	> 12.5	> 12.5	> 10.9 µM and 8.33 µM and > 12.5 µM	> 10.9 µM and 11 µM and > 12.5 µM	10.6 µM and 5.25 µM and > 12.5 µM	10.9 µM and > 12.5 µM	6.18 µM and > 12.5 µM	9.13 µM and 11 µM and > 12.5 µM	> 10.9 µM and 6.77 µM and > 12.5 µM	> 10.9 µM and 11 µM and > 12.5 µM	> 11000	> 12.5	> 10.9 µM and 7.93 µM and > 12.5 µM	> 10.9 µM and 11 µM and > 12.5 µM	> 11	> 12.5
CN[C@@H](C)C(=O)N[C@H](C(=O)N1CCC[C@H]1c1nc(C(=O)c2ccc(F)cc2)cs1)C1CCCCC1	26.6	> 100 µM			21.2	> 66	25.5 µM	> 100 µM	1.94 µM	16.3 µM	46.9 µM	> 100 µM	19.4 µM	46.1 µM	838	17.6	39.2 µM	> 100 µM	22.3	45.6
COc1ccc(C2=Nn3c(nnc3-c3ccc(F)c(Cl)c3)SC2)cc1	> 100	> 100 µM	> 100 µM	> 100 µM	> 100	> 100	> 100 µM	> 100 µM	> 100 µM	> 100 µM	> 100 µM	> 100 µM	> 100 µM	> 100 µM	> 100000	> 100	5.53 µM	> 100 µM	> 100	> 100
CCCC(=O)Oc1ccc(/C(=C(\C)c2ccc(Cl)cc2)c2ccc(OCCN(CC)CC)cc2)cc1	3.39	11.9 µM	7.2 µM	21 µM	4.25	16.5	6.98 µM	21.4 µM	1.72 µM	3.55 µM	3.81 µM	19 µM	1.93 µM	3.81 µM	1940	3.98	4.55 µM	18.1 µM	5.29	20.7
Nc1nc(N)nc(CCCCc2nc(N)nc(N)n2)n1		> 100 µM		> 100 µM		> 100		> 100 µM		> 100 µM		> 100 µM		> 100 µM		> 100		> 100 µM		> 100
C=C1C(=O)OC2CC1C(OC(=O)/C=C/c1ccccc1)C/C(C)=C/CC/C(C)=C/CCC2(C)O (configuration not stated)		3.08 µM		3.66 µM		9.4		2.87 µM		2.72 µM		3.81 µM		3.01 µM		2.83		3.04 µM		3.17
OCc1c(-c2cccs2)oc(-c2cccs2)c1CO	23.8	72.1 µM	34.6 µM	> 100 µM	40.1	> 100	48.1 µM	> 100 µM	22.7 µM	78.5 µM	35 µM	> 100 µM	27.7 µM	> 100 µM	50900	> 100			10.2	56.7
O=C(O)CCC(O)=C1S(=O)(=O)OCCOS1(=O)=O		> 100 µM		> 100 µM		> 100		> 100 µM		> 100 µM		> 100 µM		> 100 µM		> 100		> 100 µM		> 100
Nc1n[n+]([O-])c2ccc(Cl)cc2[n+]1[O-]		> 100 µM		80.1 µM		> 100				54.1 µM		> 100 µM		> 100 µM		58.7		> 100 µM		> 100
O=C1c2ccccc2C(=O)N1c1ccc(Cc2ccc(N3C(=O)c4ccccc4C3=O)cc2)cc1		> 100 µM		> 100 µM		> 100		> 100 µM		> 100 µM		> 100 µM		> 100 µM		> 100		> 100 µM		> 100
Cc1cc(NC(=O)NCCOc2ccc(N3C(N)=NC(N)=NC3(C)C)cc2Cl)ccc1S(=O)(=O)F	25	> 100 µM			> 100	> 100	5.24 µM	> 71 µM	2.05 µM	> 100 µM	1.64 µM	99.5 µM	5.16 µM	> 85.1 µM	2930	18.1	1.85 µM	> 100 µM	6.23	> 100
O=C1CCCC2=C1CC1=C(CCCC1=O)N2c1ccc(Cl)cc1		> 100 µM		> 100 µM		> 100		> 100 µM		> 100 µM		> 100 µM		> 100 µM		> 100		> 100 µM		> 100
O=C1OC(C(O)CO)C(C(O)CO)OC1=O (configuration not stated)		> 10 µM		> 10 µM		> 10		> 10 µM		> 10 µM		> 10 µM		> 10 µM		> 10		> 10 µM		> 10
COc1cc(C[C@H]2COC(=O)[C@]2(O)Cc2ccc(OCc3ccccc3)c(OC)c2)ccc1OCc1ccccc1	26.1	> 100 µM	24.2 µM	> 100 µM	5.18	> 100	> 100 µM	> 100 µM	40.3 µM	> 100 µM	73.7 µM	> 100 µM	18.9 µM	> 100 µM	37600	> 100	12.5 µM	> 100 µM	26.7	> 100
CC(NCCN(C)C)C1CCC2C3CCc4cc(O)ccc4C3CCC12C (configuration not stated)		3.99 µM		17.7 µM		8.97		4.37 µM		3.69 µM		17.5 µM		6.72 µM		9.52		4.42 µM		6.63
O=C1/C(=C/c2ccc(F)cc2)COc2ccc(O)c(O)c21	1.43	2.89 µM	3.29 µM	18.4 µM	1.96	7.85	0.864 µM	9.4 µM	1.85 µM	3.64 µM	2.51 µM	9.27 µM	8.09 µM	> 100 µM	1280	2.7	1.26 µM	3.79 µM	4.74	> 100
